According to patent EP4578857A1, “CRYPTOLEPINE SALT DERIVATIVE, AND PREPARATION METHOD THEREFOR AND USE THEREOF” (Nankai University, priority 2023, dated 2025):
Where two headings read alike, the source gives them in different places.

Tests used:
Assay type in all cases: in vivo
[1] = test system: tobacco Mosaic virus (TMV); assay: Anti-TMV activity: live protection function; settings: for TMV activity: 500µg/mL, compared with ribavirin, Table 4 (all three modes); for inhibition at 500 µg/mL: Tobacco mosaic virus, read-out: Relative inhibition rate (%) Live protection function
Description: (§1) Determination of anti-tobacco Mosaic virus (TMV) activity by the following procedure:
(§2) The virus crude extract was centrifuged with polyethylene glycol at twice and refrigerated at 4°C for use. The absorbance of 260nm wavelength was determined by ultraviolet spectrophotometer, and the virus concentration was calculated according to the formula. Virus concentration(mg/ml) = (A260 × dilution ratio)(/E)^0.10 1cm^260nm . [formula]
(§3) After weighing, cryptolepine salt derivative, ningnanmycin and the original drug of ribavirin were dissolved in DMF to obtain 1×10^5µg/mL mother solution, and then diluted to the required concentration with 1‰ Tween 80 aqueous solution.
Select the 3-5 leaf stage of tobacco Xanthi nc with uniform growth, spray the whole plant, repeat each treatment 3 times, and set 1‰ Tween80 aqueous solution as control. 24h later, the leaf surface was coated with emery (500 mesh), the disease venom was dipped with a brush, and the whole leaf surface was gently rubbed twice along the direction of the branch pulse by using the brush, the leaf was supported by palm of hand, the virus concentration was 10µg/mL, and the leaf was washed by water after inoculation. After 3 days, the number of disease spots was recorded and the prevnetion and control effect was calculated.

[2] = test system: tobacco Mosaic virus (TMV); assay: Anti-TMV activity: live treatment effect; settings: for inhibition at 500 µg/mL: Tobacco mosaic virus, 72 h, read-out: Relative inhibition rate (%) Live treatment effect
Description: as §1, §2, §3
Select the 3-5 leaf stage of tobacco Xanthi nc with uniform growth, use a brush to vaccinate the virus in the whole leaf, the virus concentration is 10µg/mL, and the leaf was washed with running water after inoculation. After the leaves were dried, the whole plant was sprayed with test sample, repeated 3 times every treatment, and 1‰ Tween 80 aqueous solution was set as control. After 3 days, the number of disease spots was recorded and the prevnetion and control effect was calculated.

[3] = test system: tobacco Mosaic virus (TMV); assay: Anti-TMV activity: living passivation activity test; settings: for inhibition at 500 µg/mL: Tobacco mosaic virus, read-out: Relative inhibition rate (%) Living passivation activity test
Description: as §1, §2, §3
Select the 3-5 leaf stage of tobacco Xanthi nc with uniform growth, mix the test sample agent with the same volume of virus juice to passivate for 30min, friction inoculation, virus concentration 20µg/mL, the leaf was washed with running water after inoculation, repeat 3 times, set 1‰ Tween 80 aqueous solution as control. 3 days later, the number of disease spots was calculated. [formula]
Anti-tobacco Mosaic virus passivation activity test of all compounds was at a treatment dose of 500µg/mL. The positive control was the commercial anti-plant virus agent viriazole.

[4] = test system: rice sheath blight strains; assay: Bactericidal activity test: resistance to rice sheath blight (live pot test); settings: for pest or weed control at 400 µg/mL: Oryza sativa, 144 h; for bactericidal activity against rice sheath blight: result in words
Description: Bactericidal activity test, the determination procedure is as follows: Test of resistance to rice sheath blight: Select uniformly growing rice seedlings and spray them on the leaves at the set concentration, set a water sprayring group as blank control, every treatment was repeated twice. After 24h, the rice seedlings were inoculated with rice sheath blight strains and placed at room temperature (25±4°C) for normal management after inoculation. The prevention and control effect was investigated by visual inspection 6 days after inoculation.

[5] = 400mg/L leaf spray on rice seedlings, inoculated after 24h, visual inspection 6 days after inoculation, read-out: Resistance to rice sheath blight (%)/400mg/L
[6] = Treatment dose 500 mg/L, tobacco Xanthi nc sprayed 24h before inoculation, virus 10µg/mL, disease spots counted after 3 days
[7] = Treatment dose 500 mg/L, tobacco Xanthi nc inoculated (virus 10µg/mL), then sprayed, disease spots counted after 3 days
[8] = Treatment dose 500 mg/L, sample mixed with virus juice for 30min, then inoculated on tobacco Xanthi nc, virus 20µg/mL, 3 days
[9] = live pot test, summary of Table 5 (400mg/L), read-out: bactericidal activity against rice sheath blight
[10] = live pot test, summary of Table 5 (400mg/L)

Structure (SMILES)	inhibition at 500 µg/mL [1]	inhibition at 500 µg/mL [2]	inhibition at 500 µg/mL [3]	pest or weed control at 400 µg/mL [4, 5]	also measured
C[n+]1c2ccccc2c(NC2CCNCC2)c2[nH]c3ccccc3c21 [Example 41]	40.8 ± 4.7%	34.1 ± 2.3%	30.6 ± 4%	40%	TMV activity [1]: better TMV activity than the ribavirin
C[n+]1c2ccccc2c(NCC2CCNCC2)c2[nH]c3ccccc3c21.[I-] [Example 42]	–	–	–	–	Relative inhibition rate (%) Live protection function [1, 6]: 28.1±3.0%; Relative inhibition rate (%) Live treatment effect [2, 7]: 30.2±2.1%; Relative inhibition rate (%) Living passivation activity test [3, 8]: 25.1±0.2%; Resistance to rice sheath blight (%)/400mg/L ([4]; 400mg/L leaf spray on rice seedlings, inoculated after 24h, visual inspection 6 days after inoculation): 25±5%
C[n+]1c2ccccc2c(NCC2CCCNC2)c2[nH]c3ccccc3c21 (stereo not drawn) [Example 43]	26.1 ± 1%	28.3 ± 0.2%	30 ± 2.1%	30%	–
CN1CCC(Nc2c3ccccc3[n+](C)c3c2[nH]c2ccccc23)CC1 [Example 44]	27.3 ± 4.4%	33.1 ± 0.3%	35.3 ± 2.1%	55 ± 5%	pest or weed control at 400 µg/mL [4, 9]: > 50%
CN1CCC(CNc2c3ccccc3[n+](C)c3c2[nH]c2ccccc23)CC1 [Example 45]	30.7 ± 2.6%	28.1 ± 0.3%	25.6 ± 1.1%	30%	–
CN1CCCC(CNc2c3ccccc3[n+](C)c3c2[nH]c2ccccc23)C1 (stereo not drawn) [Example 46]	44.7 ± 4%	40.1 ± 0.9%	46.3 ± 3.5%	30%	TMV activity [1]: better TMV activity than the ribavirin
C[n+]1c2ccccc2c(NCCCN2CCCCC2)c2[nH]c3ccccc3c21 [Example 47]	36.4 ± 2.8%	33.3 ± 2%	35.7 ± 0.3%	45 ± 5%	pest or weed control at 400 µg/mL [4, 9]: > 50%
Cn1c2c3cc(Br)ccc3nc-2cc2ccccc21 [Reference Example 1, 5-methyl-7-bromo 5H-indolo[3,2-b]quinoline, reference compound]	–	–	–	0%	inhibition at 500 µg/mL [1, 6]: 15.1 ± 2%; inhibition at 500 µg/mL [2, 7]: 10.5 ± 3%; inhibition at 500 µg/mL [3, 8]: 10.2 ± 1.8%; bactericidal activity against rice sheath blight [4, 10]: no activity
C[n+]1c2ccccc2c(N2CCN(CCN)CC2)c2[nH]c3ccc(Cl)cc3c21 [Reference Example 2, reference compound]	15.2 ± 1.1%	18.1 ± 0.2%	15.3 ± 2.1%	0%	bactericidal activity against rice sheath blight [4, 10]: no activity
